The target in assay [1] is T1, hMC-4R (Homo sapiens, UniProt P32245).
T1 construct: expressed in transfected cells; host or cells: HEK293
Put plainly: Membrane binding assay (fluorescence polarization, fluorescence labeled NDP-alpha-MSH competition). Conditions: HEK293 cell membrane preparations. The procedure:
(§1) A membrane binding assay is used to identify competitive inhibitors of fluorescence labeled NDP-alpha-MSH binding to HEK293 cell membrane preparations expressing human melanocortin receptors.
(§2) The test compound or unlabeled NDP-alpha-MSH is dispensed at varying concentrations to a 384 well microtiter plate. Fluorescence labeled NDP-alpha-MSH is dispensed at a single concentration, followed by addition of membrane preparations. The plate is incubated for 5 h at room temperature.
(§3) The degree of fluorescence polarization is determined with a fluorescence polarization microplate reader.
Background: In fluorescence polarisation assays a small probe gives low polarisation when free and higher when bound to something large.

Assay [2] addresses T1, hMC-4R. Put plainly: Functional cellular cAMP assay (fluorescence polarization). The assay is classed as cell-based. Conditions: for EC50: HEK293 cells, cAMP production; for % activation: cAMP production compared to stimulation with NDP-alpha-MSH; for fold improvement of functional activity: compared with WO030009850A1, Examples 1 and 34; for fold better functional activity: hMC4 EC50 compared with WO030009850A1, Example 166. As for the experimental part: A functional cellular assay, based on competition between unlabeled cAMP and a fixed quantity of fluorescence labeled cAMP for a limited number of binding sites on a cAMP specific antibody, is used to discriminate melanocortin receptor agonists from antagonists by fluorescence polarization.
HEK293 cells expressing one of the human melanocortin receptors are transferred to 384 well microtiter plates, an appropriate amount of cAMP antibody is added, followed by the addition of different concentrations of the test compound to effect cAMP production. Cells are lysed and a fluorescence labeled cAMP conjugate is dispensed. The plate is read on a fluorescence polarization microplate reader and the amount of cAMP produced as a response to a test compound is compared to the production of cAMP resulting from stimulation with NDP-alpha-MSH.
To define antagonistic activity of a test compound, the compound is dispensed at different concentrations to cells stimulated by an appropriate amount of NDP-α-MSH. Inhibition of cAMP production is determined by comparing the inhibition of cAMP production of the test compound to the inhibition of cAMP production by a known inhibitor tested at the same concentrations.
For orientation: cAMP levels reflect the balance of adenylyl cyclase and phosphodiesterase activity.

The target in assay [3] is T2, hMC-3R (Homo sapiens, UniProt P41968).
T2 construct: expressed in transfected cells; host or cells: HEK293
Briefly: Membrane binding assay (fluorescence polarization, fluorescence labeled NDP-alpha-MSH competition). Conditions: HEK293 cell membrane preparations. The procedure: as §1, §2, §3

For assay [4], the target named is T3, hMC-5R (Homo sapiens, UniProt P33032).
T3 construct: expressed in transfected cells; host or cells: HEK293
The description is as above. To be noted: HEK293 cell membrane preparations. The procedure:
as §1, §2, §3

T2 sequence (P41968 whole entry): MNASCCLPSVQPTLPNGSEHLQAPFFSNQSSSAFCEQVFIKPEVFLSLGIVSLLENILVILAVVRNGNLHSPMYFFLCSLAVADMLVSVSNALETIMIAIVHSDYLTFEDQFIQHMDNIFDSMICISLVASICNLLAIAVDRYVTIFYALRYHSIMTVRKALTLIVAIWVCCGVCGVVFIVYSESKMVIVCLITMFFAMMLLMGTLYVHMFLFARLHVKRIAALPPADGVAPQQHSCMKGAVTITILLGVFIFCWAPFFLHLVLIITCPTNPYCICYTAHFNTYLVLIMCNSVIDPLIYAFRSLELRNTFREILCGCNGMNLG
T3 sequence (P33032 whole entry): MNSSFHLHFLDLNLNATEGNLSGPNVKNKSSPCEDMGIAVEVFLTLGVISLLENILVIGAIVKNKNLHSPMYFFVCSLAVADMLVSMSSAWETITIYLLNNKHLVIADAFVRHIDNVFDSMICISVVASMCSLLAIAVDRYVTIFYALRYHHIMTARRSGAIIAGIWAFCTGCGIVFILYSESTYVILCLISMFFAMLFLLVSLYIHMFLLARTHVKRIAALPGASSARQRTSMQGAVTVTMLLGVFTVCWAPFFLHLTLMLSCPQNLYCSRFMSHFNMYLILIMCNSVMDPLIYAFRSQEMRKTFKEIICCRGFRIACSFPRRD
T1 sequence (P32245 whole entry): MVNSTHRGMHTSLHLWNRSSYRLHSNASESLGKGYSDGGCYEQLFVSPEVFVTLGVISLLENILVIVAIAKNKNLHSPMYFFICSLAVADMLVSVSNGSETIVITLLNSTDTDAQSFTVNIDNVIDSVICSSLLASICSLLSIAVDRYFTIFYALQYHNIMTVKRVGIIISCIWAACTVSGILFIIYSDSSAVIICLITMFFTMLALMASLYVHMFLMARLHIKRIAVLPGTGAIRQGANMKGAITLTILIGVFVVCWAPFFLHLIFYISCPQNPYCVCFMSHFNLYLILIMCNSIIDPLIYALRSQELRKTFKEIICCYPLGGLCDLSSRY

Consider `CS(=O)(=O)Nc1ccccc1N1CCN(C(=O)[C@@H](Cc2ccc(Cl)cc2)NC(=O)C2CNC2)CC1` [WO030009850 Example 34, (R)-azetidine-3-carboxylic acid {1-(4-chloro-benzyl)-2-[4-(2-methanesulfonylamino-phenyl)-piperazin-1-yl]-2-oxo-ethyl}-amide, reference compound], for which, in assay [1], the IC50 (usually the concentration needed to halve the response being measured) was determined as 2900 nM. Moreover, the “Functional Activity hMC-4R, % @10 µM” value in assay [2] (@10 µM) was determined as 11%@10 µM.
Turning to `NC1c2ccccc2CCC1C(=O)N[C@H](Cc1ccc(Cl)cc1)C(=O)N1CCC(c2ccccc2CN2CCCC2=O)CC1` (single isomer, unassigned) [Example 2B], in assay [1], the 50% inhibitory concentration (IC50) came to 7 nM. Moreover, in assay [2], the EC50 (usually the concentration that produces a half-maximal response) was determined as 29 nM and the “% activation” value is given as 90%.
On to `O=C(N[C@H](Cc1ccc(Cl)cc1)C(=O)N1CCN(c2ccccc2CN2CCCC2=O)CC1)[C@H]1Cc2ccccc2CN1` [Example 3], for which the “Binding Activity hMC-3R, % @10 uM” value in assay [3] was 41%@10 uM. The compound also displayed an IC50 in assay [1] of 29 nM. Also, in assay [4], the IC50 came out at 1300 nM. Besides, in assay [2], a half-maximal effect (EC50) was put at 260 nM, the “% activation” value is given as 109%, the “fold improvement of functional activity” value is reported as “more than 14 fold” and the “fold better functional activity” value was 11 fold.
As for `NC1c2ccccc2CCC1C(=O)N[C@H](Cc1ccc(Cl)cc1)C(=O)N1CCN(c2ccccc2CN2CCCC2=O)CC1` (single isomer, unassigned) [Example 4B], the “Binding Activity hMC-3R, % @10 uM” value in assay [3] is reported as 47%@10 uM. In assay [1], this compound registered an IC50 of 21 nM. This compound also had an IC50 in assay [4] of 1800 nM. In addition, in assay [2], the EC50 turned out to be 180 nM, the “% activation” value amounted to 91%, the “fold improvement of functional activity” value is given as more than 21 fold and the “fold better functional activity” value came out at 16 fold.
In assay [1], `NC1c2ccccc2CCC1C(=O)N[C@H](Cc1ccc(Cl)cc1)C(=O)N1CCC(c2ccccc2CN2CCCC2=O)CC1` (single isomer, unassigned) [Example 2A] came in with an IC50 of 17 nM. Further, in assay [2], the EC50 turned out to be 101 nM and the “% activation” value came out at 86%.
As for `O=C(N[C@H](Cc1ccc(Cl)cc1)C(=O)N1CCC(c2ccccc2CN2CCCC2=O)CC1)[C@H]1Cc2ccccc2CN1` [Example 1], the IC50 in assay [3] is 7200 nM; in assay [1] it was 17 nM; in assay [4] it was 807 nM. Also, the EC50 in assay [2] is 60 nM. Also, in assay [2], the “% activation” value is 112%.
The corresponding values for `O=C(N[C@H](Cc1ccc(Cl)cc1)C(=O)N1CCN(c2ccccc2CN2CCCC2=O)CC1)C1CNC1` [WO030009850 Example 166, (R)-azetidine-3-carboxylic acid (1-(4-chloro-benzyl)-2-oxo-2-{4-[2-(2-oxo-pyrrolidin-1-ylmethyl)-phenyl]-piperazin-1-yl}-ethyl)-amide, reference compound] are 19200 nM, 110 nM, 6900 nM, 2850 nM and 90%.
`CS(=O)(=O)Nc1ccccc1N1CCN(C(=O)[C@@H](Cc2ccc(Cl)cc2)NC(=O)[C@H]2Cc3ccccc3CN2)CC1` [WO030009850 Example 1, (R,R)-1,2,3,4-tetrahydro-isoquinoline-3-carboxylic acid {1-(4-chloro-benzyl)-2-[4-(2-methanesulfonylamino-phenyl)-piperazin-1-yl]-2-oxo-ethyl}-amide, reference compound]: in assay [1], the IC50 is 500 nM. Besides, in assay [2], it took 3740 nM to reach a half-maximal effect (EC50) and the “% activation” value came to 96%.
On to `O=C(N[C@H](Cc1ccc(Cl)cc1)C(=O)N1CCC(c2ccccc2CN2CCCC2=O)CC1)C1CNC1` [WO030009847 Example 153, (R)-azetidine-3-carboxylic acid (1-(4-chloro-benzyl)-2-oxo-2-{4-[2-(2-oxo-pyrrolidin-1-ylmethyl)-phenyl]-piperidin-1-yl}-ethyl)-amide, reference compound], for which the IC50 in assay [3] was found to be 5200 nM; in assay [1], 40 nM; in assay [4], 3300 nM. The same compound returned an EC50 in assay [2] of 1020 nM. Also, the “% activation” value in assay [2] is 107%.

These data come from EP1538159A1, “Substituted N-benzyl-lactam derivatives as melanocortin-4 receptor agonists” (Santhera Pharmaceuticals (Schweiz) GmbH, priority 2003, dated 2005).
